According to PMC9437101, “Curcumin-based-fluorescent probes targeting ALDH1A3 as a promising tool for glioblastoma precision surgery and early diagnosis” (Communications Biology, 2022):

Tests used:
[1] = target: T1, ALDH1A1 (Homo sapiens, UniProt P00352); assay: Enzymatic inhibition assay with acetaldehyde; type: biochemical; conditions: up to highest probe concentration
T1 construct: E. coli BL21 (DE3) were transformed with the full-length expression vector of each isoform; His-tag; made in house; host or cells: E. coli BL21 (DE3)
T1 sequence (P00352 1-501): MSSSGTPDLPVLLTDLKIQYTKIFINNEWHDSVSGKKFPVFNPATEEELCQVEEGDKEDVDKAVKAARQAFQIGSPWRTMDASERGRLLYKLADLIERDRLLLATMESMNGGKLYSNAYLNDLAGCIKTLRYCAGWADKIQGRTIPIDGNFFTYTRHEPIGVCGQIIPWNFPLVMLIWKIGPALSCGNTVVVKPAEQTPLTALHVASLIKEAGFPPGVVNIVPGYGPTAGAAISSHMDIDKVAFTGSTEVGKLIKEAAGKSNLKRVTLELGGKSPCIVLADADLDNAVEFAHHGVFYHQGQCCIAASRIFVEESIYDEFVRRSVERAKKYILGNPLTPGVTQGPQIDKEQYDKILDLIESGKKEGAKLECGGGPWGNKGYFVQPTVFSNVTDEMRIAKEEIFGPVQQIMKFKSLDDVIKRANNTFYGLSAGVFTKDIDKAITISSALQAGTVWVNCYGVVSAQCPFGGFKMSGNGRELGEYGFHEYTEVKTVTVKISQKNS
Protocol: (§1) Initially, the inhibitory activities of our fluorescent probes were screened at a fixed concentration of 50 μM using a Tecan Sunrise 96 Multiplate Reader with Greiner Bio-One 96-UV-Transparent Microplates. The analysis was performed in triplicate in a total volume of 100 μl per well containing 20 mM Tris HCl pH 8.0, 1 mM β-mercaptoethanol, 150 mM KCl, 500 μM NAD^+, […], 2.8 μM hALDH1A and 20 mM acetaldehyde. Afterwards, the inhibitory potency of the fluorescent probes was further investigated, evaluating the IC50 parameter. The enzymatic inhibition assays were performed in triplicate in a total volume of 100 μl per well containing 20 mM Tris HCl pH 8.0, 1 mM β-mercaptoethanol, 150 mM KCl, 500 μM NAD^+, 2.8 μM hALDH1A and 20 mM acetaldehyde in the presence of different probe concentrations, from 200 μM to 1.5625 μM. The DMSO final concentration allowed was up to 15%. Only for ALDH1A3 in complex with Probe 10, the Ki affinity parameter was calculated by performing the analysis in triplicate in a total volume of 100 μl per well containing 20 mM Tris HCl pH 8.0, 1 mM β-mercaptoethanol, 150 mM KCl, 500 μM NAD^+ and 2.8 μM ALDH1As. Due to chemical nature of Probe 10 and Probe 11, we set up the enzymatic assay assuming a competitive inhibition using different compounds concentration, from 200 μM to 1 μM, and different acetaldehyde concentrations, from 20 mM to 2.5 mM. Each reaction mix was preincubated for 10 min at 25 °C before the analysis. The catalytic activity was measured by monitoring the absorbance at 340 nm (εNADH = 6220 M^−^1 cm^−1) for 30 min at 25 °C and the inhibitory parameters were calculated by processing the raw data on SigmaPlot[53].

[2] = target: T2, ALDH1A2 (Homo sapiens, UniProt O94788); assay: Enzymatic inhibition assay with acetaldehyde; type: biochemical; conditions: up to highest probe concentration
T2 construct: E. coli BL21 (DE3) were transformed with the full-length expression vector of each isoform; His-tag; made in house; host or cells: E. coli BL21 (DE3)
T2 sequence (O94788 1-518): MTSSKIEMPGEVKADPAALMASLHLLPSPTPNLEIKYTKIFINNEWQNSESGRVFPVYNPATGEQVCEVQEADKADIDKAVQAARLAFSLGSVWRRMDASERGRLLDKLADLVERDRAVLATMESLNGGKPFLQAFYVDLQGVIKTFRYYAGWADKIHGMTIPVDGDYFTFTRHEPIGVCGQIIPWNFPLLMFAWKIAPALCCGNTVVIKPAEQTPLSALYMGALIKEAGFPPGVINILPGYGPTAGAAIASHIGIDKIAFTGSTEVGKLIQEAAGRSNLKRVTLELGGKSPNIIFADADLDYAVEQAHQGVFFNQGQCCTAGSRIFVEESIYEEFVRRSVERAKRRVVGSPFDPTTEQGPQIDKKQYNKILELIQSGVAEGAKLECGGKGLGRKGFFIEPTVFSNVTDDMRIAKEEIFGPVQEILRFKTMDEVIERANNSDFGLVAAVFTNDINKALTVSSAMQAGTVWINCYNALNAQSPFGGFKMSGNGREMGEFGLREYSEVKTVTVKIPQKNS
Protocol: as §1

[3] = tested on: GL261 glioblastoma in left striatum; assay: In vivo labeling of orthotopic GL261 glioblastoma after i.p. injection; parameters: species or system mice; conditions: 6 days after implantation, 6 h after injection, probe 10 18 μg, probe 11 5 μg
Excerpt: We used in vitro and in vivo cells from a mouse high grade glioma cell line, GL261[56]. Briefly, ten 2- to 3-month-old female C57BlC mice were stereotactically implanted under deep general anesthesia (isoflurane supplemented with nitrous oxide) with 1 × 10^5 GL261 glioblastoma cells. The cells were stereotactically inoculated through a burr hole by a Hamilton syringe into the left striatum (coordinates: 1 mm anteroposterior and 1 mm lateral from bregma, at a depth of 3 mm). All experimental procedures were conducted in accordance with the European Communities Council Directive of the 24th of November 1986 (86/609 EEC), with the Recommendation 18/06/2007, Dir. 2010/63/UE and with the Italian law for care and use of experimental animals (DL116/92) and were approved by the Italian Ministry of Health (prot. E669C.15) and by the Bioethical Committee of the University of Turin. All animals were housed under a 12-h light-dark cycle in an environmentally controlled room. All experiments were designed to minimize the numbers of animals used and their discomfort. In each experiment, animals with tumors were allocated to two groups and i.p. injected with probe 10 (18 μg) or probe 11 (5 μg). […] Quantitative and phenotypic evaluations were made on the images acquired with a Leica TCS SP5 confocal microscope. […]

Row | Structure (SMILES) | inhibition of ALDH1A1 [1] | inhibition of ALDH1A2 [2] | labelling of the growing tumor in vivo [3]
1 | CCOC(=O)Cn1cc(COc2ccc(/C=C/C(=O)/C=C(O)/C=C/c3ccc(O)c(OC)c3)cc2OC)nn1 [Probe 11] | no inhibitory effect | no inhibitory effect | does not penetrate to any appreciable level the tumor cells in vivo
2 | COc1cc(/C=C/C(O)=C/C(=O)/C=C/c2ccc(OCc3cn(CCOc4ccc(C=O)cc4)nn3)c(OC)c2)ccc1O [Probe 10] | Neither of the two other isozymes were inhibited | Neither of the two other isozymes were inhibited | only Probe 10 was able to selectively label the growing tumor
